From patent US7396905B1, “Calcipressins: endogenous inhibitors of calcineurin, uses and reagents related thereto” (priority 1999, dated 2008)

Columns and labels:
[1] = test system: BHK cells transfected with CnA and CnB; assay: Calcium ionophore-induced apoptosis of BHK cells transfected with CnA/CnB; type: cell-based, baby hamster; details: ionomycin, low serum
Description: FIG. 7: Cells transfected with CnA/CnB (0.5 μg each) were serum deprived for four hours and stimulated with ionomycin (0.25 μM) for one hour in low serum media alone or containing CsA (800 nM), 6 MeAla-CsA (800 nM), and MeBm2t-CsA (800 nM), FK506 (100 nM).
Calcium signaling plays an important and yet mechanistically vague role in a wide range of cell death, including neuronal cell death in stroke and lymphocyte cell death during positive and negative selection. To test the possibility that calcineurin, a calcium-activated phosphatase, participates in cell death, we asked if cells overexpressing calcineurin would show an enhanced sensitivity to calcium ionophore-induced cell death (Shibasaki and McKeon, 1995). We co-transfected calcineurin A and B subunits into baby hamster kidney (BHK) cells and treated them with calcium ionophore approximately 16 hours later.

[2] = test system: Csp1 transcripts; assay: Csp1 transcript induction (Northern blot) in Jurkat T cells; type: cell-based; details: human Jurkat T cells, through eight hours
Description: 16A. Calcium signaling induces Csp 1 expression in synergy with PKC pathways. Csp 1 Northern blot of Jurkat T cells were treated with either calcium ionophore (I), PMA (P) or both (I+P) for the indicated durations. GAPDH transcripts were used as sample loading control.
16B. Calcium-dependent Csp 1 induction requires calcineurin.

[3] = test system: calcineurin-dependent nuclear import of NF-AT4; assay: Calcineurin-dependent NF-AT4 nuclear import assay in BHK cells; type: cell-based, baby hamster; details: for inhibition of NF-AT4 nuclear import stimulated by calcium ionophore: co-expressed with GFP-NF-AT4 in BHK cells; for inhibition of NF-AT nuclear import driven by constitutively active calcineurin (ΔCnA): co-expressed with NF-AT and constitutively active ΔCnA in BHK cells
Description: This assay monitors the subcellular location of GFP-tagged NF-AT4, a transcription factor that resides in the cytoplasm of unstimulated BHK cells. Following stimulation of BHK cells with ionomycin, a calcium ionophore, GFP-NF-AT4 translocates to the nucleus with a t1/2 of five minutes. This translocation event is accompanied by a dephosphorylation of NF-AT4 in a process dependent on calcineurin.
Baby hamster kidney cells were grown on sterile glass coverslips in DMEM media with 10% fetal calf serum and transfected using calcium phosphate methods (Heald et al., 1993). […] NF-AT4 expression was based on the vector pcDNA3-GFP-NF-AT4 (Shibasaki et al., 1996). Transfected cells were grown for 18 hours prior to drug treatments. Cells were fixed 30 minutes after ionomycin (0.5 uM) treatment or washout using 3% formaldehyde in PBS for 10 minutes at room temperature.

[4] = Solubility assay upon expression in E. coli; type: physicochemical
Description: Calcineurin consists of two subunits (Klee et al., 1998), CnA (60 kDa) and CnB (18 kDa), neither of which is soluble when expressed individually in E. coli. The structure of calcineurin was studied by taking advantage of the high level of calcineurin in the central nervous system to directly isolate it from bovine brain (Griffith et al., 1995). […] It is likely that the insolublility of Csp expression in E. coli is due to the absence of binding proteins such as calcineurin, thereby leaving hydrophobic stretches of amino acids uncomplemented (FIG. 1). As with the calcineurin subunits, it is possible that Csp 1 and Csp2 interact with calcineurin in a manner that will form a properly folded, soluble complex. […] The E. coli host containing the calcineurin expression vector will be transformed with these Csp vectors and selected for kanamycin resistance.
Alternatively the given protein or complex may be obtained in sufficient quantities and quality and crystallization protocols may be attempted. […] The skilled artisan will appreciate that other protein expression systems, such as baculovirus, may also be used.

[5] = biological target: T1, purified bovine brain calcineurin (Bos taurus, UniProt P48452+P63099); assay: Phosphorylated RII-peptide calcineurin phosphatase assay; type: biochemical; details: PKA-phosphorylated RII peptide as substrate; GsT fusion proteins 0-20 nM, 15 minutes; read-out: 50 percent inhibition concentrations (IC50) for calcineurin
T1 construct: 50 nM purified bovine brain calcineurin; from tissue; host or cells: bovine brain
Description: The RII peptide of the cAMP-regulatory subunit of PKA was produced as a fusion protein with GsT and labeled with ^32P-phosphate using protein kinase A followed by glutathione-Sepharose affinity purification (Milan et al., 1994). The radiolabeled RII GsT fusion protein was incubated with 1.5u of purified bovine brain calcineurin (ProMega) and 200 nM calmodulin (Sigma) in the presence of 0-20 nM GsT-Csp1 or GsT-Csp2 for 15 minutes. The reaction was stopped by the addition of an equal volume of 2xSDS sample buffer. After fractionation by SDS-polyacrylamide gel electrophoresis, free phosphate was measured by PhosphorImager analysis.

[6] = biological target: T1, purified bovine brain calcineurin; assay: Para-nitrophenyl phosphate (pNPP) hydrolysis assay; type: biochemical; details: 60 mM pNPP, 50 nM calcineurin, 0-100 nM GsT fusion protein
Description: To determine whether the calcipressins; inhibit calcineurin in a manner similar to the immunosuppressants, we assayed pNPP hydrolysis by calcineurin-calcipressin complexes.
Reactions were performed for 30 min at 30 degrees, and stopped by the addition of 950 uL of 1M NaOH. The reaction product was measured by absorbance at 405 nm in a Beckman Du 64 spectophotometer.

[7] = test system: calcineurin-dependent NF-AT dephosphorylation; assay: NF-AT4 dephosphorylation (western blot mobility) in BHK cells; type: cell-based, baby hamster; details: co-expressed with NF-AT4 in BHK cells; calcium ionophore treatment
Description: 3B. […] The transfected cells were either left untreated or treated with 1 μM calcium inonphore for 30 min, and the mobility of NF-AT4 was assessed by western blotting.

[8] = test system: human calcineurin A subunit; assay: Yeast two-hybrid interaction with calcineurin; type: binding
Sequence of human calcineurin A subunit (P63098 2-170, further chain): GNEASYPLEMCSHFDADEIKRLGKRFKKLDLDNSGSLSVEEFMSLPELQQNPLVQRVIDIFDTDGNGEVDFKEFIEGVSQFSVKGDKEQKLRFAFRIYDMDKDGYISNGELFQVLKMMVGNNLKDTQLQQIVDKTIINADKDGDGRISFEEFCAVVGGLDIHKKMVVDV
Description: Potential targets of calcineurin, which is involved in neuronal calcium signaling, were identified using two hybrid screens of a murine hippocampal cDNA library as the prey and using calcineurin as a bait.
The calcineurin bait vector was constructed by cloning the human calcineurin A subunit (ΔCnAD130N; Zhu and McKeon, 1999) into pBRIDGE (Clontech) to create a fusion protein with the Gal4 DNA binding domain. The calcineurin regulatory B subunit (CnB) was cloned into the same pBridge vector under a separate, constitutive promoter. To test for interactions between calcineurin and proteins expressed in the hippocampus, the yeast strain CG1945, in which HIS3 expression is controlled by the Gal1 upstream activating sequence (UAS), was transfected with both the pBRIDGE vector as well as vector DNA from the murine hippocampal cDNA library. Cells were selected for growth on SD media lacking leucine, tryptophan, methionine, and histidine (-LWMH) containing 25 mM 3-aminotriazole, an inhibitor of alternative histidine biosynthetic pathways (REF). […]

Molecule: C/C=C/CC(C)(C)[C@@H](O)C1C(=O)N[C@@H](CC)C(=O)N(C)CC(=O)N(C)[C@@H](CC(C)C)C(=O)N[C@@H](C(C)C)C(=O)N(C)[C@@H](CC(C)C)C(=O)N[C@@H](C)C(=O)N[C@H](C)C(=O)N(C)[C@@H](CC(C)C)C(=O)N(C)[C@@H](CC(C)C)C(=O)N(C)[C@@H](C(C)C)C(=O)N1C (some centres unmarked) [MeBm2t-CsA]
- effect on calcineurin-induced apoptosis [1]: augment the apoptotic effect of calcineurin to a greater extent than CsA

Molecule: CCCCCCCCCCCCCC(=O)O[C@@H]1[C@@H](C)[C@@]2(O)[C@@H](C=C(CO)C[C@]3(O)C(=O)C(C)=C[C@@H]23)[C@@H]2C(C)(C)[C@]12OC(C)=O [PMA, phorbol 12-myristate 13-acetate]
- effect on Csp1 transcript level [2]: weak yet detectable stimulation of Csp1 transcription

Molecule: C[C@H](CCC(=O)O)C[C@H](C)C[C@H](C)C(=O)/C=C(\O)[C@H](C)C[C@H](C)C/C=C/[C@@H](C)[C@@H](O)[C@@H](C)[C@@H](O)C[C@@H]1CC[C@@](C)([C@H]2CC[C@@](C)([C@@H](C)O)O2)O1 [ionomycin]
- effect on Csp1 transcript level [2]: not significantly elevated

Molecule: Csp1 101-197: Csp1 lacking the N-terminus; C-terminal half of Csp1 (amino acids 101-197)
- inhibition of NF-AT4 nuclear import stimulated by calcium ionophore [3]: sufficient to inhibit the nuclear import of NF-AT4
- fraction of molecule soluble in E. coli ([4]; truncated molecule expressed in E. coli): approximately 70%

Molecule: Csp1: Calcipressin 1, murine homolog of DSCR1, endogenous inhibitor of calcineurin; amino acid sequence SEQ ID No: 4
- IC50 [5]: 2 nM

Molecule: Csp2: Calcipressin 2, murine homolog of ZAKI-4, endogenous inhibitor of calcineurin; amino acid sequence SEQ ID No: 5
- inhibition of pNPP hydrolysis by calcineurin [6]: blocked the hydrolysis of pNPP by calcineurin
- inhibition of NF-AT4 nuclear import stimulated by calcium ionophore [3]: profound suppression
- inhibition of NF-AT nuclear import driven by constitutively active calcineurin (ΔCnA) [3]: strong inhibitors of ΔCnA-induced NF-AT nuclear import
- IC50 [5]: 5 nM
- NF-AT4 phosphorylation state [7]: hyperphosphorylated despite calcium ionophore treatment
- binding to calcineurin in two-hybrid yeast strains [8]: specifically bind to the catalytic subunit of calcineurin (CnA)
- typical yield of total protein in the soluble fraction ([4]; full length molecule expressed in E. coli at 15, 22, or 30° C.): 3%

Molecule: Csp3: Third calcipressin family member, cDNA cloned from activated murine T cells; amino acid sequence SEQ ID No: 24
- inhibition of NF-AT nuclear import driven by constitutively active calcineurin (ΔCnA) [3]: inhibits the calcineurin mediated translocation of NFAT
